Square brackets hold non-standard residues; d marks the D form. Peptide text beside a SMILES is read from it. NMeTrp(1-(4-Br-benzyl)) = CN[C@@H](Cc1cn(Cc2ccc(Br)cc2)c2ccccc12)C(=O)O; Butanoyl(2R-oxy,4-CN) = N#CCC[C@@H](O)C(=O)O; Ala(cPr) = N[C@@H](CC1CC1)C(=O)O; NMeL = CN[C@@H](CC(C)C)C(=O)O; NMeA = CN[C@@H](C)C(=O)O
Key:
Format in all cases: cell-based
[1] = test system: Prl-ss+10aa/Gaussia Luciferase; assay: Prl-ss-Gluc assay (constitutively active or 24 hr Dox inducible); conditions: Flp-In 293 T-REx cells, 24 hours; read-out: Prl IC50
Method in brief: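 Stable Flp-In 293 T-REx lines express Prl signal sequence+10aa fused to Gaussia luciferase, either constitutively (pcDNA5/FRT) or under the T-REx promoter (pcDNA5/FRT/TO). Cells plated the day before; compounds in DMSO/media (with doxycycline for the inducible line, 24 h) incubated at 37 °C, 5% CO2.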

[2] = test system: U266B1 multiple myeloma cell line; assay: U266 assay (cell viability, Celltiter-Glo); conditions: Homo sapiens, U-266; 48 hours, cell viability
Method: Cells were plated in 384-well tissue culture plates and treated with compound dilutions in DMSO/media. Plates were incubated at 37° C., 5% CO2 for 48 hours. After 48 hours, Celltiter-Glo@ (Promega) was added to each well and luciferase signal was quantified using Tecan Infinite M1000 Pro for cell viability determination.

[3] = test system: VCAMss+10aa/Gaussia Luciferase; assay: VCAM-ss-Gluc assay (constitutively active or Dox induced); conditions: Flp-In 293 T-REx cells, 24 hours
Method in brief: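 Stable cell lines secreting a VCAM signal sequence+10aa/Gaussia luciferase fusion, expressed either constitutively or under T-REx doxycycline control. Cells plated the day before; compound dilutions in DMSO/media (with doxycycline for the induced line) added and incubated at 37° C, 5% CO2.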

[4] = test system: PD1-ss+10aa/Gaussia Luciferase; assay: Dox induced PD1-ss-Gluc assay; conditions: Flp-In 293 T-REx cells, doxycycline, 24 hours; read-out: PD1ss Gluc IC50
Method in brief: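 Stable Flp-In 293 T-REx line expressing doxycycline-inducible Gaussia luciferase fused to the PD1 signal sequence plus 10 amino acids. Cells plated the day before, then exposed to compound dilutions in DMSO/media containing doxycycline at 37 °C, 5% CO2.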

[5] = test system: JJN3 plasma cell leukemia cell line; assay: JJN-3 assay (Alamar blue); conditions: Homo sapiens, 72 h
Method in brief: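 For both lines, 5000 cells/well were exposed to compound or a 1% DMSO-medium control for 72 h unless otherwise specified. Signal was normalized to the DMSO control.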

[6] = test system: TNFα-FL/Gaussia Luciferase; assay: Dox induced TNFα-FL-Gluc assay; conditions: Flp-In 293 T-REx cells, doxycycline, 24 hours; read-out: TNFa FL Gluc IC50
Method in brief: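 Stable Flp-In 293 T-REx line expressing full-length TNFα (aa 1-233) fused at its C-terminus to Gaussia luciferase under doxycycline-inducible control. Cells plated the day before, then given compound dilutions in DMSO/media containing doxycycline and incubated at 37 °C, 5% CO2.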

[7] = test system: NCI-H929 multiple myeloma cell line; assay: H929 assay (cell viability, Celltiter-Glo); conditions: Homo sapiens, NCI-H929; 48 hours, cell viability; read-out: H929 EC50
Method in brief: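 Cells plated in RPMI 1640 with 10% FBS and 2 mM glutamine, treated with compound dilutions in DMSO/media. Incubation 48 h at 37° C, 5% CO2. Viability from luciferase luminescence signal.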

[8] = test system: BT474 breast tumor cell line; assay: BT474 assay (Alamar blue); conditions: Homo sapiens, BT-474, 72 h
Method: BT474 is a human breast tumor cell line. JJN3 is a human plasma cell leukemia cell line. […] Cells were seeded at 100 000 cells/mL. Aliquots of 5000 cells (50 μL) were added to each well in black, clear bottom 96-well plates. Compounds or control (50 uL of 1% DMSO in cell culture medium) were added to the cells to the indicated final concentrations and cells were incubated for 72 h (unless otherwise specified). After incubation was complete, Alamar blue (10 uL of a 1 mg/mL solution) was added to each well and plates were incubated for 5 h. Fluorescence was then measured (excitation 545 nm, emission 590 nm) and is reported as […] normalized to DMSO control.

HER3ss-Gluc = assay: HER3ss assay; conditions: HEK-293T T-rex cells, transient transfection, doxycycline, 24 h; read-out: HER3 ss IC50
Method in brief: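 HEK-293T T-REx cells were transiently transfected with HER3 signal sequence (plus four mature-domain residues) fused upstream of mature Gaussia luciferase. Cells were induced with doxycycline (1 μg/ml) and exposed to increasing compound concentrations for 24 h, then secreted luciferase in the conditioned medium was read by luminescence.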

| Compound | IC50 [1] [nM] | EC50 [2] [nM] | IC50 [3] [nM] | IC50 [4] [nM] | EC50 [5] [nM] | IC50 [6] [nM] | EC50 [7] [nM] | EC50 [8] [nM] | IC50 (HER3ss-Gluc) [nM] |
| --- | --- | --- | --- | --- | --- | --- | --- | --- | --- |
| CC(C)C[C@@H]1NC(=O)[C@H](Cc2cn(Cc3ccc(C(F)(F)F)cc3)c3ccccc23)N(C)C(=O)[C@H](CC(C)C)NC(=O)[C@H](CC(C)C)N(C)C(=O)[C@H](CC(C)C)NC(=O)[C@@H](CCC#N)OC(=O)[C@H](C)N(C)C1=O [C-42] (HELM PEPTIDE1{L.[meA].[N#CCC[C@@H](O[*:1])C(=O)[*:2]].L.[meL].L.[CN([C@@H](Cc1cn(Cc2ccc(C(F)(F)F)cc2)c2ccccc12)C(=O)[*:2])[*:1]]}$PEPTIDE1,PEPTIDE1,1:R1-7:R2$$$V2.0) | 5470 | 19900 | 167 | 37 | 894 | 357 | 3950 | 3300 |  |
| COc1cccc(Cn2cc(C[C@H]3C(=O)N[C@@H](CC(C)C)C(=O)N(C)[C@@H](C)C(=O)O[C@H](CCC#N)C(=O)N[C@@H](CC(C)C)C(=O)N(C)[C@@H](CC(C)C)C(=O)N[C@@H](CC(C)C)C(=O)N3C)c3ccccc32)c1 [C-13] (HELM PEPTIDE1{L.[meA].[N#CCC[C@@H](O[*:1])C(=O)[*:2]].L.[meL].L.[COc1cccc(Cn2cc(C[C@@H](C(=O)[*:2])N(C)[*:1])c3ccccc32)c1]}$PEPTIDE1,PEPTIDE1,1:R1-7:R2$$$V2.0) | 1900 | 17000 | 1030 | 30 | 192 | 118 | 830 | 1360 | 69 |
| COc1cc(Cn2cc(C[C@H]3C(=O)N[C@@H](CC(C)C)C(=O)N(C)[C@@H](C)C(=O)O[C@H](CCC#N)C(=O)N[C@@H](CC(C)C)C(=O)N(C)[C@@H](CC(C)C)C(=O)N[C@@H](CC(C)C)C(=O)N3C)c3ccccc32)ccc1F [C-27] (HELM PEPTIDE1{L.[meA].[N#CCC[C@@H](O[*:1])C(=O)[*:2]].L.[meL].L.[COc1cc(Cn2cc(C[C@@H](C(=O)[*:2])N(C)[*:1])c3ccccc32)ccc1F]}$PEPTIDE1,PEPTIDE1,1:R1-7:R2$$$V2.0) | 856 | 17300 | 140 | 57 | 319 | 234 | 1680 | 2140 | 101 |
| CC(C)C[C@@H]1NC(=O)[C@H](Cc2cn(Cc3cncc(F)c3)c3ccccc23)N(C)C(=O)[C@H](CC(C)C)NC(=O)[C@H](CC(C)C)N(C)C(=O)[C@H](CC(C)C)NC(=O)[C@@H](CCC#N)OC(=O)[C@H](C)N(C)C1=O [C-35] (HELM PEPTIDE1{L.[meA].[N#CCC[C@@H](O[*:1])C(=O)[*:2]].L.[meL].L.[CN([C@@H](Cc1cn(Cc2cncc(F)c2)c2ccccc12)C(=O)[*:2])[*:1]]}$PEPTIDE1,PEPTIDE1,1:R1-7:R2$$$V2.0) | 1250 |  | 207 | 108 | 242 | 373 | 2840 | 1260 | 126 |
| Cc1cccc(Cn2cc(C[C@H]3C(=O)N[C@@H](CC(C)C)C(=O)N(C)[C@@H](C)C(=O)O[C@H](CCC#N)C(=O)N[C@@H](CC(C)C)C(=O)N(C)[C@@H](CC(C)C)C(=O)N[C@@H](CC(C)C)C(=O)N3C)c3ccccc32)n1 [C-33] (HELM PEPTIDE1{L.[meA].[N#CCC[C@@H](O[*:1])C(=O)[*:2]].L.[meL].L.[Cc1cccc(Cn2cc(C[C@@H](C(=O)[*:2])N(C)[*:1])c3ccccc32)n1]}$PEPTIDE1,PEPTIDE1,1:R1-7:R2$$$V2.0) | 6030 | 8880 | 240 | 385 | 1480 | 1360 | 4250 | 4190 | 216 |
| CC(C)C[C@@H]1NC(=O)[C@H](Cc2cn(Cc3ccc(Br)cc3)c3ccccc23)N(C)C(=O)[C@H](CC(C)C)NC(=O)[C@H](CC(C)C)N(C)C(=O)[C@H](CC2CC2)NC(=O)[C@@H](CCC#N)OC(=O)[C@H](C)N(C)C1=O [C-38] (cyclo([Ala(cPr)][NMeL]L[NMeTrp(1-(4-Br-benzyl))]L[NMeA][Butanoyl(2R-oxy,4-CN)])) | 6110 |  | 320 | 105 | 957 | 389 | 3700 | 3880 | 317 |
| CC(C)C[C@@H]1NC(=O)[C@H](Cc2cn(Cc3ccc(F)cc3)c3ccccc23)N(C)C(=O)[C@H](CC(C)C)NC(=O)[C@H](CC(C)C)N(C)C(=O)[C@H](CC(C)C)NC(=O)[C@@H](CCC#N)OC(=O)[C@H](C)N(C)C1=O [C-12] (HELM PEPTIDE1{L.[meA].[N#CCC[C@@H](O[*:1])C(=O)[*:2]].L.[meL].L.[CN([C@@H](Cc1cn(Cc2ccc(F)cc2)c2ccccc12)C(=O)[*:2])[*:1]]}$PEPTIDE1,PEPTIDE1,1:R1-7:R2$$$V2.0) | 1110 | 6960 | 230 | 8 | 71 | 44 | 740 | 627 | 31 |
| CC(C)C[C@@H]1NC(=O)[C@H](Cc2csc3ccccc23)N(C)C(=O)[C@H](CC(C)C)NC(=O)[C@H](CC(C)C)N(C)C(=O)[C@H](CC(C)C)NC(=O)[C@@H](CCC#N)OC(=O)[C@H](C)N(C)C1=O [C-29] (HELM PEPTIDE1{L.[meA].[N#CCC[C@@H](O[*:1])C(=O)[*:2]].L.[meL].L.[CN([C@@H](Cc1csc2ccccc12)C(=O)[*:2])[*:1]]}$PEPTIDE1,PEPTIDE1,1:R1-7:R2$$$V2.0) | 3400 |  | 26 | 100 | 316 | 314 | 2640 | 1340 | 22 |
| CC(C)C[C@@H]1NC(=O)[C@H](Cc2cn(Cc3ccc(F)c(F)c3)c3ccccc23)N(C)C(=O)[C@H](CC(C)C)NC(=O)[C@H](CC(C)C)N(C)C(=O)[C@H](CC(C)C)NC(=O)[C@@H](CCC#N)OC(=O)[C@H](C)N(C)C1=O [C-28] (HELM PEPTIDE1{L.[meA].[N#CCC[C@@H](O[*:1])C(=O)[*:2]].L.[meL].L.[CN([C@@H](Cc1cn(Cc2ccc(F)c(F)c2)c2ccccc12)C(=O)[*:2])[*:1]]}$PEPTIDE1,PEPTIDE1,1:R1-7:R2$$$V2.0) | 428 |  | 61 | 27 | 140 | 125 | 611 | 940 | 60 |
| CCCC[C@@H]1NC(=O)[C@@H](CCC#N)OC(=O)[C@H](C)N(C)C(=O)[C@H](CC(C)C)NC(=O)[C@H](Cc2cn(Cc3ccc(Br)cc3)c3ccccc23)N(C)C(=O)[C@H](CC(C)C)NC(=O)[C@H](CC(C)C)N(C)C1=O [C-40] (HELM PEPTIDE1{L.[meA].[N#CCC[C@@H](O[*:1])C(=O)[*:2]].[Nle].[meL].L.[CN([C@@H](Cc1cn(Cc2ccc(Br)cc2)c2ccccc12)C(=O)[*:2])[*:1]]}$PEPTIDE1,PEPTIDE1,1:R1-7:R2$$$V2.0) | 3260 |  | 122 | 48 | 327 | 184 | 2280 | 2150 | 802 |
